Paper PMC8237267 (Journal of Medicinal Chemistry, 2021)
“And” between values parts separate entries of the source, which are not always exact repeats. Identical values can stand only once. Like-named read-outs stand apart in the source and are kept apart here.

Legend:
HDAC6 [1] = target: T1, HDAC6 (Homo sapiens, UniProt Q9UBN7); test: Reversibility of inhibition (Koff kinetics), residence time; type: biochemical; conditions: compound-HDAC6 complex; read-out: in vitro residence time (1/kobs)
T1 sequence (Q9UBN7 1-1215): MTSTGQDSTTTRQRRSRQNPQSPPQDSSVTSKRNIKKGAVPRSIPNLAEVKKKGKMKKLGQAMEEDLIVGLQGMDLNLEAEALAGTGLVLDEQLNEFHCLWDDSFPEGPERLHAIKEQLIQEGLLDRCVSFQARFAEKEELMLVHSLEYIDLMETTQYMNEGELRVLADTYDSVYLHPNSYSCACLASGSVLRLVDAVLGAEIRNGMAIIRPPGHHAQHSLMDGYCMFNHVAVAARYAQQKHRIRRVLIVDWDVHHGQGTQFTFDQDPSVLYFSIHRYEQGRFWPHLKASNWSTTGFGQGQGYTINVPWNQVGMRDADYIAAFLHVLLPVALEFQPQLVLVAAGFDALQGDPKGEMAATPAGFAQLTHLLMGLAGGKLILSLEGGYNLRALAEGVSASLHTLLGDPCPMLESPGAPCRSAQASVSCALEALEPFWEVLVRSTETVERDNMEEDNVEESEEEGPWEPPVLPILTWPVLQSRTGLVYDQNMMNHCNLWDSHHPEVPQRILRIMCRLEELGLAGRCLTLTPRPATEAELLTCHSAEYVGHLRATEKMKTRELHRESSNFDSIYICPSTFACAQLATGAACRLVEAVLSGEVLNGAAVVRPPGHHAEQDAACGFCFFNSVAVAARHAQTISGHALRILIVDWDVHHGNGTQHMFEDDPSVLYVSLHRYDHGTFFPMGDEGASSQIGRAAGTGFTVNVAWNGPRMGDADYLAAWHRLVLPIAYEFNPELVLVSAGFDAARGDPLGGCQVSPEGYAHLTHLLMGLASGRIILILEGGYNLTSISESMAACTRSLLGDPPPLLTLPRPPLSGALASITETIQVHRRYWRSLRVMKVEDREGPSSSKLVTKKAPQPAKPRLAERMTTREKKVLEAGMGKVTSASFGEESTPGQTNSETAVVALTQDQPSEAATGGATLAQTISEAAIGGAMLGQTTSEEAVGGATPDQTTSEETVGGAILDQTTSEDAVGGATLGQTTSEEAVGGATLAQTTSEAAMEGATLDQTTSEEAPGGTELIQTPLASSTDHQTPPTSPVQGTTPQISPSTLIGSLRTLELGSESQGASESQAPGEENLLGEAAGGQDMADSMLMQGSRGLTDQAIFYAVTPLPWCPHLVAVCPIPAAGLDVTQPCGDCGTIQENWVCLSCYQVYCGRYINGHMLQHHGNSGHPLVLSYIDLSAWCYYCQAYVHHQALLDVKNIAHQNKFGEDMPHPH
From the text: Progress curves were obtained after dilution, and enzyme recovery was fitted with the following equation: % conv = Vs × t + (Vi – Vs)/Kobs app × (1 – exp(−Kobs app × t), in which Vi is the initial velocity, Vs is steady state velocity, and Kobs is the observed rate constant. The obtained Kobs rate constant was used to determine the reversibility of inhibition and calculate residence time as 1/2Tres = ln2 × 1/Kobs.

HDAC8 = target: T2, HDAC8 (Homo sapiens, UniProt Q9BY41); test: HDAC EMSA activity assay (Nanosyn); type: biochemical; conditions: recombinant enzyme, EMSA (Nanosyn); read-out: In vitro IC50 HDAC8
T2 construct: The full-length human HDACs were recombinantly expressed and purified from SF9 insect cells; host or cells: SF9 insect cells
T2 sequence (Q9BY41 1-377): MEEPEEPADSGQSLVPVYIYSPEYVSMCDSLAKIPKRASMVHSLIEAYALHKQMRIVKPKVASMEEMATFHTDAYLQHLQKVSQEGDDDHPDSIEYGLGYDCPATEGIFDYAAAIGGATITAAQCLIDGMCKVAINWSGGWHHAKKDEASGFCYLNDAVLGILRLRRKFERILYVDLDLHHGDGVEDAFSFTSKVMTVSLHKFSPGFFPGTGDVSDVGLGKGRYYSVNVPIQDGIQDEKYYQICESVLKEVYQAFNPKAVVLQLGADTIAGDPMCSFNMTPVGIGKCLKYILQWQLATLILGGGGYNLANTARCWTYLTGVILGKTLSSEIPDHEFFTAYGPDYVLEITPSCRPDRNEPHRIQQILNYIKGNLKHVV

HDAC6 [2] = target: T1, HDAC6; test: HDAC EMSA activity assay (Nanosyn); type: biochemical; set-up: The full-length human HDACs were recombinantly expressed and purified from SF9 insect cells; host or cells: SF9 insect cells; conditions: for IC50: EMSA (Nanosyn); for HDAC6 fold-selectivity: over the next closest HDAC isoform tested, * = selectivity ≥ indicated value
HDAC11 = target: T3, HDAC11 (Homo sapiens, UniProt Q96DB2); test: HDAC EMSA activity assay (Nanosyn); type: biochemical; conditions: recombinant enzyme, read-out: In vitro IC50 HDAC11
T3 construct: The full-length human HDACs were recombinantly expressed and purified from SF9 insect cells; host or cells: SF9 insect cells
T3 sequence (Q96DB2 1-347): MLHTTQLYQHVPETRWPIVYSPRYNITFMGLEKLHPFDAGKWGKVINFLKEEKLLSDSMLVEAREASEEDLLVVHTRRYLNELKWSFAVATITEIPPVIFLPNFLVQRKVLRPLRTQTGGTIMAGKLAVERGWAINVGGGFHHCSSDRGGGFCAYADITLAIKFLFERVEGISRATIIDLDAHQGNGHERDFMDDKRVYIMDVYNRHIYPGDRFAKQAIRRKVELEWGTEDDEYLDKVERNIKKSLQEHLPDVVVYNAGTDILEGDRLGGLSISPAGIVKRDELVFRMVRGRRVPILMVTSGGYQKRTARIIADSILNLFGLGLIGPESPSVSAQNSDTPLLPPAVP

HDAC3 = target: T4, HDAC3 (Homo sapiens, UniProt O15379); test: HDAC EMSA activity assay (Nanosyn); type: biochemical; conditions: recombinant enzyme, read-out: In vitro IC50 HDAC3
T4 construct: The full-length human HDACs were recombinantly expressed and purified from SF9 insect cells; host or cells: SF9 insect cells

MRC-9 = test: Cytotoxicity assay (Cell Titer-Blue, 72 h); type: cell-based; conditions: MRC9; MRC-9 (healthy fibroblasts); read-out: In cellulo IC50 MRC-9
MV4-11 = test: Cytotoxicity assay (Cell Titer-Blue, 72 h); type: cell-based; conditions: Homo sapiens; MV4-11 (AML); read-out: In cellulo IC50 MV4-11
[3] = Glutathione stability / reactivity assay; type: in vitro ADME
Procedure: Although covalent modification of HDAC6 was not observed (Figure S2), the PFBS group is susceptible to nucleophilic aromatic substitution by biological nucleophiles. A previously described high-throughput in vitro glutathione-reactivity assay was conducted, where compounds were incubated in the presence of glutathione (GSH) and the formation of a GSH-compound adduct was monitored over time via LC/MS/MS.[50]
Compound was added to PBS and 5 mM GSH to reach a final concentration of 5 μM. […] Samples were vortexed and centrifuged for 45 min at 3220g. Aliquots were diluted by ultrapure water, and used for LC/MS/MS analysis. Peak area ratios were determined and percent compounds remaining was calculated by the following equation: [drawing 1] where peak area ratio (t min) is the peak area ratio of control and test compounds at t min; peak area ratio0min is the peak area ratio of control and test compounds at the zero time point. In vitro half-life (t1/2) = −(0.693/k).

[4] = Stability in hepatocytes (species not stated); type: in vitro ADME; set-up: dose or concentration left out as unconfirmed; conditions: mouse, species not given
HDAC6 [5] = target: T1, HDAC6; test: Time-dependent IC50 assay with preincubation (0-6 h); type: biochemical; conditions: 6 h time-dependent assay
Procedure: The binding kinetics profile of KT-531 was also investigated by determining the association (kon)/dissociation (koff) rates as well as residence time parameters. The in vitro residence time (1/kobs) for the KT-531–HDAC6 complex was determined to be 23.18 min, as compared to 10.72 min for 1.

[6] = In vitro stability in mouse hepatocytes; type: in vitro ADME; conditions: read-out: Stability in mouse hepatocytes t1/2
Procedure: The inhibitors (and controls) were formulated to concentrations of 100 μM in 50% acetonitrile/50% water. The medium (William’s E Medium supplemented with GlutaMAX) and hepatocyte thawing medium were allowed to reach room temperature and the hepatocytes and thawing medium and centrifuged at 100 g for 10 min. The supernatant was removed, and hepatocytes resuspended in the incubation medium (∼1.5 × 10^6 cells/mL). The cells were diluted to 0.5 × 10^6 viable cells/mL. A volume of 198 μL of hepatocytes was transferred to a 96-well noncoated plate and incubated at 37 °C for 10 min. Following this, 2 μL of the 100 μM test compounds or positive control was transferred into respective wells to start the reaction. At different time points (0, 15, 30, 60, 90, and 120 min), 25 μL aliquots were mixed with 6 volumes (150 μL) of acetonitrile containing internal standard, IS (100 nM alprazolam, 200 nM labetalol, 200 nM caffeine, and 200 nM diclofenac) to terminate the reaction. Samples were vortexed for 5 min and centrifuged for 45 min at 3220g, diluted by ultrapure water, followed by LC/MS/MS analysis. The in vitro half-life (T1/2) was determined by regression analysis of the percent parent disappearance vs time curve (T1/2 = 0.693/k) using Microsoft Excel.

[7] = Stability in human hepatocytes; type: in vitro ADME; conditions: read-out: t1/2 in human hepatocytes
[8] = Stability in mouse plasma; type: in vitro ADME; set-up: half-life at 2 h: dose or concentration left out as unconfirmed; conditions: read-out: Plasma stability t1/2
Procedure: The plasma stability of the compounds was evaluated in mouse plasma provided from Sigma-Aldrich, Oakville, Canada. The main stock solutions of the compounds were prepared at 10 mM in DMSO, which was diluted to 100 μM in 50% acetonitrile (ACN)/50% water. Aliquots of 356.5 μL of plasma proteins were placed in a heating block and allowed to equilibrate at 37 °C for 5 min. Then, 3.5 μL of 100 μM compound solutions were added to each vial (final concentration of 1 μM). Three quality control (QC) samples at 100, 500, and 1000 nM were prepared in 0.5% ACN. The vial contents were transferred in 50 μL aliquots at time points of 0.5, 5, 10, 20, 30, and 60 mi to a 96-well autosampler plate containing 150 μL of protein precipitation solution. Ice-cold ACN containing internals standards (100 nM glyburide) were used as the protein precipitation solution. After centrifugation at 4 °C, 5500 rpm for 15 min, the supernatant was diluted in MQ water, and injected into the LC/MS/MS for quantitative analysis.
The mobile phase consisted of (A) 0.1% (v/v) formic acid in Milli-Q water; (B) 0.1% (v/v) formic acid in acetonitrile. […] Peak areas were determined from extracted ion chromatograms. The in vitro half-life (t1/2) of parent compounds were determined by regression analysis of the percent parent disappearance vs time curve.

[9] = recombinant enzyme, read-out: In vitro IC50 HDAC6
[10] = PBS with 5 mM glutathione (GSH), 5 mM GSH, PBS, read-out: half-life in incubation with GSH

T4 sequence (O15379 whole entry): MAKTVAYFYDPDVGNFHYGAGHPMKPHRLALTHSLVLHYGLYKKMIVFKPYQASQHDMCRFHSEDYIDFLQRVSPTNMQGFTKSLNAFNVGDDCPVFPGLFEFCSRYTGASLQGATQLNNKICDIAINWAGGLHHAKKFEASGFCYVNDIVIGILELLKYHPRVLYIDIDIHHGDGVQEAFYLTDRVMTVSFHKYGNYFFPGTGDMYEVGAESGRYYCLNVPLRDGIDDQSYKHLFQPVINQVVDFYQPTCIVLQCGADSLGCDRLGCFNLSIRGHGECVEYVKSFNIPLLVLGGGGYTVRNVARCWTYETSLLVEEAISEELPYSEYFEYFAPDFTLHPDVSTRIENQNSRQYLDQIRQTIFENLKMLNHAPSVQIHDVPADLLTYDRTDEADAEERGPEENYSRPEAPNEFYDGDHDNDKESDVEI
T4 sequence (Q9Y618 395-489 partner limits assumed): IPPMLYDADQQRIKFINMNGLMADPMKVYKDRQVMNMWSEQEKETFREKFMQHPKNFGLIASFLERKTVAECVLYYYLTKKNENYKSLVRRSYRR

residence time (HDAC6 [1]) [min] | IC50 (HDAC8) [nM] | IC50 (HDAC6 [2]; read-out: IC50 HDAC6) [nM] | HDAC6 fold-selectivity (HDAC6 [2]) | IC50 (HDAC6 [2]; [9]) [nM] | IC50 (HDAC11) [nM] | IC50 (HDAC3) [nM] | half-life at 5 μM [3, 10] [min] | half-life at 2 h, 5 µM [3, 10] [min] | half-life at 2 h [4] [min] | reversibility of binding (IC50 over preincubation time) (HDAC6 [5]) | half-life at 1 μM [6] [min] | half-life [7] [min] | reactivity with glutathione ([3]; GSH adduct formation by LC/MS/MS, KT-531 up to 24 h) | half-life at 2 h [8] [min] | SMILES | IC50 (MRC-9) [nM] | IC50 (MV4-11) [nM]
10.7 | 700 | 5.9 | 36 fold and 36.32 fold | 6 | > 1000 | 200 |  |  |  |  |  |  |  |  | O=C(NO)c1ccc(CNC(=O)c2c(F)c(F)c(F)c(F)c2F)cc1 [Compound 1, 2,3,4,5,6-Pentafluoro-N-(4-(hydroxycarbamoyl)benzyl)benzamide] | > 50000 | 1850
 | 29 | 0.9 |  |  | 47 | 70 | ~20 | 20 | 3 | unchanged IC50 values | < 2.26 | 3.84 |  |  | O=C(NO)c1ccc(CN(C2CC2)S(=O)(=O)c2c(F)c(F)c(F)c(F)c2F)cc1 [Compound 5, 4-(((N-Cyclopropyl-2,3,4,5,6-pentafluorophenyl)sulfonamido)methyl)-N-hydroxybenzamide] | > 20000 | 
 | 378 |  | 37.8 fold | 10 | > 1000 | > 1000 |  |  |  |  |  |  | unreactive toward GSH | 25 | O=C(NO)c1ccc(CN(C2CC2)S(=O)(=O)c2c(F)c(F)cc(F)c2F)cc1 [Compound 6, 4-(((N-Cyclopropyl-2,3,5,6-tetrafluorophenyl)sulfonamido)methyl)-N-hydroxybenzamide] | > 15000 | 6140
